Experimental data: ChEMBL document CHEMBL4007388, “Synthesis and antiproliferative activity of monocationic arylthiophene derivatives” (Eur J Med Chem, 2017)

How the values were obtained:
Homo sapiens = organism: Homo sapiens; test: Inhibition of PTK in human MCF7 cells at 1 uM preincubated for 2 hrs followed by poly-Glu-Tyr substrate addition by ELISA relative to control; type: cell-based
NCI-H226 = test: Growth inhibition of human NCI-H226 cells incubated for 48 hrs by sulforhodamine B assay; type: functional; conditions: NCI-H226, 48 h
CCRF-CEM = test: Growth inhibition of human CCRF-CEM cells incubated for 48 hrs by sulforhodamine B assay; type: functional
SF-295 = test: Growth inhibition of human SF295 cells incubated for 48 hrs by sulforhodamine B assay; type: functional; conditions: SF-295, 48 h
WISH = test: Cytotoxicity against human WISH cells assessed as reduction in cell viability after 24 hrs by MTT assay; type: cell-based
DU-145 = test: Growth inhibition of human DU145 cells incubated for 48 hrs by sulforhodamine B assay; type: functional; conditions: DU-145, 48 h
KM12 = test: Growth inhibition of human KM12 cells incubated for 48 hrs by sulforhodamine B assay; type: functional; conditions: KM12, 48 h
T47D = test: Growth inhibition of human T47D cells incubated for 48 hrs by sulforhodamine B assay; type: functional
HCC 2998 = test: Growth inhibition of human HCC2998 cells incubated for 48 hrs by sulforhodamine B assay; type: functional; conditions: HCC 2998, 48 h
MDA-MB-231 = test: Growth inhibition of human MDA-MB-231 cells incubated for 48 hrs by sulforhodamine B assay; type: functional; conditions: MDA-MB-231, 48 h
MOLT-4 = test: Growth inhibition of human MOLT4 cells incubated for 48 hrs by sulforhodamine B assay; type: functional; conditions: MOLT-4, 48 h
SR = test: Growth inhibition of human SR cells incubated for 48 hrs by sulforhodamine B assay; type: functional
HOP-62 = test: Growth inhibition of human HOP62 cells incubated for 48 hrs by sulforhodamine B assay; type: functional; conditions: HOP-62, 48 h
TK-10 = test: Growth inhibition of human TK10 cells incubated for 48 hrs by sulforhodamine B assay; type: functional; conditions: TK-10, 48 h
BT-549 = test: Growth inhibition of human BT549 cells incubated for 48 hrs by sulforhodamine B assay; type: functional; conditions: BT-549, 48 h
HL-60(TB) = test: Growth inhibition of human HL-60(TB) cells incubated for 48 hrs by sulforhodamine B assay; type: functional; conditions: HL-60, 48 h
A498 = test: Growth inhibition of human A498 cells incubated for 48 hrs by sulforhodamine B assay; type: functional; conditions: A498, 48 h
IGROV-1 = test: Growth inhibition of human IGROV1 cells incubated for 48 hrs by sulforhodamine B assay; type: functional; conditions: IGROV-1, 48 h
[1] = Inhibition of PTK in human MCF7 cells preincubated for 2 hrs followed by poly-Glu-Tyr substrate addition by ELISA; type: cell-based
[2] = Safety index, ratio of compound IC50 to 5-fluorouracil IC50 for human WISH cells; type: ADME, cell-based; conditions: read-out: Ratio IC50
[3] = Safety index, ratio of compound IC50 to 5-fluorouracil IC50 for human WI38 cells; type: ADME, cell-based; conditions: WI-38 cells, read-out: Ratio IC50

SMILES | inhibition (Homo sapiens) | GI50 (NCI-H226) | GI50 (CCRF-CEM) | GI50 (SF-295) | IC50 (WISH) | GI50 (DU-145) | GI50 (KM12) | GI50 (T47D) | GI50 (HCC 2998) | GI50 (MDA-MB-231) | GI50 (MOLT-4) | GI50 (SR) | GI50 (HOP-62) | GI50 (TK-10) | GI50 (BT-549) | GI50 (HL-60(TB)) | GI50 (A498) | GI50 (IGROV-1) | IC50 [1] | other results
COc1cc(OC)cc(-c2ccc(-c3ccc(C(=N)N)cc3)s2)c1 | 19 to 36% | 2.23 µM | 1.88 µM | 1.82 µM | 87.2 µM | 1.77 µM | 1.84 µM | 1.65 µM | 1.82 µM | 2.08 µM | 1.65 µM | 0.231 µM | 1.9 µM | 1.97 µM | 1.8 µM | 1.9 µM | 1.73 µM | 2.11 µM | – | –
N=C(N)c1ccc(-c2ccc(-c3ccccc3)s2)cc1F | 19 to 36% | 12.9 µM | 3.2 µM | – | 82.2 µM | 11.3 µM | 4.41 µM | 5.13 µM | 2.45 µM | 3.34 µM | 4.4 µM | 3.11 µM | 10.5 µM | 10.7 µM | 10.7 µM | 2.14 µM | 12.8 µM | 5.29 µM | – | –
N=C(N)c1ccc(-c2ccc(-c3ccc(F)cc3)s2)cc1 | 19 to 36% | 2.19 µM | 1.82 µM | 1.66 µM | 232 µM | 1.63 µM | 1.34 µM | 1.2 µM | 0.492 µM | 1.56 µM | 1.58 µM | 0.307 µM | 1.58 µM | 1.85 µM | 1.65 µM | 0.679 µM | 1.42 µM | 1.79 µM | – | –
COc1ccc(-c2ccc(-c3ccc(C(=N)N)c(F)c3)s2)cc1 | 66% | 14.4 µM | 3.11 µM | – | 112 µM | 6.25 µM | 3.16 µM | 2.92 µM | 1.85 µM | 2.75 µM | 3.26 µM | 3.17 µM | 10.4 µM | 4.33 µM | 5.9 µM | 2.19 µM | 6.58 µM | 4.38 µM | 0.92 µM | –
N=C(N)c1ccc(-c2ccc(-c3ccc(Cl)cc3)s2)cc1 | 98% | 0.451 µM | 0.2 µM | 0.171 µM | 146 µM | 0.185 µM | 0.196 µM | 0.179 µM | 0.183 µM | 0.184 µM | 0.207 µM | 0.249 µM | – | 0.22 µM | 1.73 µM | 0.214 µM | 0.191 µM | – | 0.013 µM | –
COc1cc(OC)cc(-c2ccc(-c3ccc(C(=N)N)c(F)c3)s2)c1 | 74% | 1.73 µM | 0.306 µM | 1.59 µM | 115 µM | 0.426 µM | 0.352 µM | – | 0.207 µM | – | 0.326 µM | 0.224 µM | 1.61 µM | 1.78 µM | 1.37 µM | 0.229 µM | 1.33 µM | 0.484 µM | 0.877 µM | –
N=C(N)c1ccc(-c2ccc(-c3ccc(Cl)cc3)s2)cc1F | 88% | 2.03 µM | 0.194 µM | 0.691 µM | 64.2 µM | 0.43 µM | 0.226 µM | – | 0.156 µM | – | 0.243 µM | 0.218 µM | 1.48 µM | 1.74 µM | 1.5 µM | 0.212 µM | 1.38 µM | 0.611 µM | 0.107 µM | selectivity ratio [2]: 9; selectivity ratio [3]: 6
